This passage reports EC50 results from BindingDB's records for doi:10.1021/acsmedchemlett.1c00391 (Glaxosmithkline, 2021).

Experiment [1] can be described thus: Inhibition of HCV genotype 1a NS5A infected in HuH-7-Luc/Neo-ET cells assessed as reduction in viral replication measured by Luciferase reporter gene assay. For orientation: In a reporter assay the amount or activity of a reporter protein is the signal.
A short description of experiment [2]: Inhibition of HCV genotype 1b NS5A infected in HuH-7-Luc/Neo-ET cells assessed as reduction in viral replication measured by Luciferase reporter gene assay.

As usually defined, the EC50 is the concentration giving half of the maximal effect. On to `COC(=O)N[C@H]1CCC[C@H]2CC[C@@H](c3ncc(-c4ccc(-c5ccc(-c6cnc([C@@H]7CCCN7C(=O)[C@@H](NC(=O)OC)C(C)C)[nH]6)cc5)cc4)[nH]3)N2C1=O`, for which the values for the EC50 in experiment [1] and in experiment [2] were 17 nM and 0.109 nM, respectively.
For `COC(=O)N[C@H](C(=O)N1CCC[C@H]1c1ncc(-c2ccc(-c3ccc(-c4cnc([C@@H]5CC[C@@H]6CCC[C@@H](NC(=O)OC)C(=O)N65)[nH]4)cc3)cc2)[nH]1)C(C)C` the same measures were 12 nM and 0.133 nM.
For `COC(=O)N[C@H](C(=O)N1CCC[C@H]1c1ncc(-c2ccc(-c3ccc(-c4cnc([C@@H]5CC[C@H]6CCC[C@@H](NC(=O)OC)C(=O)N65)[nH]4)cc3)cc2)[nH]1)C(C)C`, the EC50 in experiment [1] turned out to be 0.673 nM; in experiment [2], 0.059 nM.
On to `COC(=O)N[C@H]1CCC[C@@H]2CC[C@@H](c3ncc(-c4ccc(-c5ccc(-c6cnc([C@@H]7CCCN7C(=O)[C@@H](NC(=O)OC)C(C)C)[nH]6)cc5)cc4)[nH]3)N2C1=O`, for which the EC50 in experiment [1] is 0.471 nM; in experiment [2], 0.037 nM.
For `COC(=O)N[C@H]1CCC[C@H]2CC[C@@H](c3ncc(-c4ccc(-c5ccc(-c6cnc([C@@H]7CC8(CN7C(=O)[C@@H](NC(=O)OC)C(C)C)OCCO8)[nH]6)cc5)cc4)[nH]3)N2C1=O` the same measures were 8.6 nM and 0.046 nM.
For `COC(=O)N[C@H](C(=O)N1CC2(C[C@H]1c1ncc(-c3ccc(-c4ccc(-c5cnc([C@@H]6CC[C@@H]7CCC[C@@H](NC(=O)OC)C(=O)N76)[nH]5)cc4)cc3)[nH]1)OCCO2)C(C)C` the same measures were 15 nM and 0.08 nM.
On to `COC(=O)N[C@H](C(=O)N1CC2(C[C@H]1c1ncc(-c3ccc(-c4ccc(-c5cnc([C@@H]6CC[C@H]7CCC[C@@H](NC(=O)OC)C(=O)N76)[nH]5)cc4)cc3)[nH]1)OCCO2)C(C)C`, for which the EC50 in experiment [1] came out at 0.707 nM; in experiment [2] it was 0.047 nM.
Take `COC(=O)N[C@H]1CCC[C@@H]2CC[C@@H](c3ncc(-c4ccc(-c5ccc(-c6cnc([C@@H]7CC8(CN7C(=O)[C@@H](NC(=O)OC)C(C)C)OCCO8)[nH]6)cc5)cc4)[nH]3)N2C1=O`: the EC50 was found to be 1.5 nM in experiment [1] and 0.064 nM in experiment [2].
For `COC(=O)N[C@H](C(=O)N1CC2(C[C@H]1c1ncc(-c3ccc(-c4ccc(-c5cnc([C@@H]6CC[C@@H]7CCC[C@H](N(C)C)C(=O)N76)[nH]5)cc4)cc3)[nH]1)OCCO2)C(C)C` the same measures were 32 nM and 0.209 nM.
For `COC(=O)N[C@H](C(=O)N1CC2(C[C@H]1c1ncc(-c3ccc(-c4ccc(-c5cnc([C@@H]6CC[C@@H]7CCC[C@@H](N(C)C)C(=O)N76)[nH]5)cc4)cc3)[nH]1)OCCO2)C(C)C` the same measures were 119 nM and 0.217 nM.
The corresponding values for `COC(=O)N[C@H](C(=O)N1CC2(C[C@H]1c1ncc(-c3ccc(-c4ccc(-c5cnc([C@@H]6CC[C@H]7CCC[C@@H](N(C)C)C(=O)N76)[nH]5)cc4)cc3)[nH]1)OCCO2)C(C)C` are 11 nM and 0.298 nM.
In the case of `COC(=O)N[C@H](C(=O)N1CC2(C[C@H]1c1ncc(-c3ccc(-c4ccc(-c5cnc([C@@H]6CC[C@H]7CCC[C@H](N(C)C)C(=O)N76)[nH]5)cc4)cc3)[nH]1)OCCO2)C(C)C`, the figures for the EC50 in experiment [1] and in experiment [2] were 7.7 nM and 0.084 nM, respectively.
For `COC(=O)N[C@H](C(=O)N1CCC[C@H]1c1nc(-c2ccc(-c3ccc(-c4c[nH]c([C@@H]5CCCN5C(=O)[C@@H](NC(=O)OC)C(C)C)n4)cc3)cc2)c[nH]1)C(C)C` [BMS-790052], the EC50 in experiment [1] stood at 0.079 nM; in experiment [2], 0.032 nM.
